Measurements reported in patent US20050004216A1, “Treating asthma, chronic obstructive pulmonary disease and/or other respiratory difficulties” (priority 2001, published 2005).

Assays:
[1] = test system: asthma, chronic obstructive pulmonary disease and/or other respiratory difficulties; test: Trial examples: oral capsules in patients with asthma and/or chronic obstructive pulmonary disease; assay type: in vivo, human; settings: trials with a variety of patients; dosage forms of cetyl myristate alone
Description: Examples of use follows. […] That mixture comprises by weight 95% cetyl myristate and 5% cetyl palmitate by weight manufactured by the process as disclosed in NZ Patent Specification No. 332959. In addition added excipients were present in the admixture and then encapsulated in the non gelatin two part capsule case.

[2] = laboratory experiments; reference to website www.gcinutrients.com; cited from earlier work

In the case of `CCCCCCCCCCCCCCCCOC(=O)CCCCCCCCCCCCC` [cetyl myristate], the “relief from the symptoms of asthma, chronic obstructive pulmonary disease and/or other respiratory difficulties” value [1] is given as “favourable responses” and the anti-arthritic activity [2] is given as “negligible”.
